Source: article PMC3463139 (Journal of medicinal chemistry, 2012)
Like-named read-outs stand apart in the source and are kept apart here.

Key:
hA1AR [1] = target: T1, hA1AR (Homo sapiens, UniProt P30542); experiment: Radioligand binding at hA1AR; conditions: for AR subtype selectivity in binding (in words): A1, A2A and A3 ARs compared
T1 sequence (P30542 1-326): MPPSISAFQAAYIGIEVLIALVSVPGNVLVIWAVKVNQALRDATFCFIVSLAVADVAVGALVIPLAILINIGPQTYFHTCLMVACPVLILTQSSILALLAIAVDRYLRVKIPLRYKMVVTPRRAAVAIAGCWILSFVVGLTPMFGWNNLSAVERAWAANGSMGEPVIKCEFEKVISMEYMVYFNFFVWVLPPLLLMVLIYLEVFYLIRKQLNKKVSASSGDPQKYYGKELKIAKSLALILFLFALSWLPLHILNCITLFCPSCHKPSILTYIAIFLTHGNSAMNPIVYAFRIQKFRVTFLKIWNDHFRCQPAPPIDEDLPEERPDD

mice [2] = experiment: 6 Hz minimal clonic seizure test; type: in vivo
hA1AR [3] = target: T1, hA1AR; type: cell-based; conditions: for Agonist efficacy at A1AR (in words): cyclic AMP assay, 10 μM
mice [4] = experiment: Maximal electroshock; type: in vivo; conditions: for MES model, number of animals protected from convulsions: qualitative
mice [5] = experiment: Corneal kindled mouse model of partial seizures; type: in vivo; conditions: i.p.
hA1AR [6] = target: T1, hA1AR; conditions: at 10 μM; relative to 44a (100%); ref Tosh et al.[20] or Gao et al. [21]; cited from earlier work
mice [7] = experiment: Subcutaneous metrazol; type: in vivo; conditions: for scMET model, number of animals protected from convulsions: qualitative
rat A1AR = conditions: read-out: Kd at rat A1AR; cited from earlier work
hA3AR = target: T2, hA3AR (Homo sapiens, UniProt P0DMS8); experiment: Radioligand binding at hA3AR; conditions: replacement of 2-Cl with 2-H
T2 sequence (P0DMS8 1-318): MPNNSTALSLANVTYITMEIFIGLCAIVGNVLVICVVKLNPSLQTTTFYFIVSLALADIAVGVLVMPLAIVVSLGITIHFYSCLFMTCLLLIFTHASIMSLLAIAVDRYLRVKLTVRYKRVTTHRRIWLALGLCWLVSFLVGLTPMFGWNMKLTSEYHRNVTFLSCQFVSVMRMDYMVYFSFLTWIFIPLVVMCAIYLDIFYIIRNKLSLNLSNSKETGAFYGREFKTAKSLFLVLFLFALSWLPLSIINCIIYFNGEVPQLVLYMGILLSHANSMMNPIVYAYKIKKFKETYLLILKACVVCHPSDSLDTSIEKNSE

in vivo = conditions: male, CF No 1 albino, mouse, ip

NNc1nc(NC(C2CC2)C2CC2)c2ncn([C@H]3[C@H](O)[C@H](O)[C@@H]4C[C@@H]43)c2n1 [Compound 40]
AR subtype selectivity in binding (in words) (hA1AR [1]): nonselective

COC(=O)c1cnn(-c2nc(NC(C3CC3)C3CC3)c3ncn([C@H]4[C@H](O)[C@H](O)[C@@H]5C[C@@H]54)c3n2)c1 [Compound 42]
AR subtype selectivity in binding (in words) (hA1AR [1]): weak nonselective

O[C@@H]1[C@H](O)[C@@H]2C[C@@H]2[C@H]1n1cnc2c(NC(C3CC3)C3CC3)nc(Cl)nc21 [Compound 10]
6 Hz model, animals protected (mice [2]; 30 mg/kg i.p. (highest dose tested)): 7 out of 8
6 Hz model, mice protected (mice [2]; […] i.p.): 4 out of 8
Response in 6 Hz model (in words) (mice [2]; mice, i.p.): active
Agonist efficacy at A1AR (in words) (hA1AR [3]): full agonist
MES model, number of animals protected from convulsions (mice [4]; 3 mg/kg i.p.): 1 out of 4 (3 mg/kg)
Response in MES model (in words) (mice [4]; i.p.): inactive
Corneal kindled mouse model EC50 (±SE) (mice [5]; at 1 h post injection): 1.79 ± 0.71 mg/kg
Response in corneal kindling model (in words) (mice [5]; mice): active
% Inhibition, cyclic AMP, A1 (maximal efficacy) (hA1AR [6]): 80–100%
scMET model, number of animals protected from convulsions (mice [7]; 3 mg/kg i.p.): No protection (3 mg/kg)
Response in scMET model (in words) (mice [7]; i.p.): inactive

CC(C)[C@H](Nc1nc(Cl)nc2c1ncn2[C@H]1[C@H](O)[C@H](O)[C@@H]2C[C@@H]21)C1CC1 [Compound 15, (1R,2R,3S,4R,5S)-4-(2-Chloro-6-((S)-1-cyclopropyl-2-methyl-propylamino)-9H-purin-9-yl)bicyclo[3.1.0]hexane-2,3-diol]
AR subtype selectivity in binding (in words) (hA1AR [1]): moderately selective for the A1AR

O[C@@H]1[C@H](O)[C@@H]2C[C@@H]2[C@H]1n1cnc2c(N[C@H](c3ccccc3)C3CC3)nc(Cl)nc21 [Compound 21, (1R,2R,3S,4R,5S)-4-(2-Chloro-6-((S)-cyclopropylphenylmethylamino)-9H-purin-9-yl)bicyclo[3.1.0]hexane-2,3-diol]
AR subtype selectivity in binding (in words) (hA1AR [1]): bound weakly at the three ARs

NCCNC(=O)Cc1ccc(NC(=O)Cc2ccc(Nc3ncnc4c3ncn4[C@@H]3O[C@H](CO)[C@@H](O)[C@H]3O)cc2)cc1 [Compound 46, N^6-[4-[[[4-[[[(2-Aminoethyl)amino]carbonyl]methyl]anilino]carbonyl]methyl]phenyl]adenosine, reference compound]
MES model, number of animals protected from convulsions (mice [4]; 2 mg/kg i.p.): 4 out of 8 (2mg/kg)
scMET model, number of animals protected from convulsions (mice [7]; 1 mg/kg i.p.): 5 out of 8 (1 mg/kg)

CC(C)[C@@H](Nc1nc(Cl)nc2c1ncn2[C@H]1[C@H](O)[C@H](O)[C@@H]2C[C@@H]21)C1CC1 [Compound 14, (1R,2R,3S,4R,5S)-4-(2-Chloro-6-((R)-1-cyclopropyl-2-methyl-propylamino)-9H-purin-9-yl)bicyclo[3.1.0]hexane-2,3-diol]
AR subtype selectivity in binding (in words) (hA1AR [1]): moderately selective for the A1AR

O[C@@H]1[C@H](O)[C@@H]2C[C@@H]2[C@H]1n1cnc2c(NC(C3CCCC3)C3CCCC3)nc(Cl)nc21 [Compound 11, (1R,2R,3S,4R,5S)-4-(2-Chloro-6-(dicyclopentylmethylamino)-9H-purin-9-yl)bicyclo[3.1.0]hexane-2,3-diol]
inhibition at 10 µM (hA1AR [1]; read-out: % inhibition of radioligand binding, A1, at 10 μM, [3H]R-PIA, CHO cells): < 50%

C[C@H](CSc1nc2ccccc2s1)Nc1nc(Cl)nc2c1ncn2[C@@H]1O[C@H](CO)[C@@H](O)[C@H]1O [NNC-21-0136, N^6-[R-(2-benzothiazolyl)thio-2-propyl]-2-chloroadenosine]
Kd (rat A1AR): 1.16 nM

O[C@@H]1[C@H](O)[C@@H]2C[C@@H]2[C@H]1n1cnc2c(NCC(C3CC3)C3CC3)nc(Cl)nc21 [Compound 7, (1R,2R,3S,4R,5S)-4-(2-Chloro-6-(2,2-dicyclopropylethylamino)-9H-purin-9-yl)bicyclo[3.1.0]hexane-2,3-diol]
AR subtype selectivity in binding (in words) (hA1AR [1]): nonselective

O[C@@H]1[C@H](O)[C@@H]2C[C@@H]2[C@H]1n1cnc2c(N[C@@H](c3ccccc3)C3CC3)nc(Cl)nc21 [Compound 20, (1R,2R,3S,4R,5S)-4-(2-Chloro-6-((R)-cyclopropylphenylmethylamino)-9H-purin-9-yl)bicyclo[3.1.0]hexane-2,3-diol]
AR subtype selectivity in binding (in words) (hA1AR [1]): bound weakly at the three ARs
Agonist efficacy at A1AR (in words) (hA1AR [3]): did not activate the A1AR

O[C@@H]1[C@H](O)[C@@H]2C[C@@H]2[C@H]1n1cnc2c(NC(C3CC3)C3CC3)ncnc21 [Compound 37a]
Increase of affinity at the A3AR relative to compound 10 (hA3AR): 28 fold

O=C(O)c1cnn(-c2nc(NC(C3CC3)C3CC3)c3ncn([C@H]4[C@H](O)[C@H](O)[C@@H]5C[C@@H]54)c3n2)c1 [Compound 43]
AR subtype selectivity in binding (in words) (hA1AR [1]): weak nonselective

OC[C@H]1O[C@@H](n2cnc3c(NC4CCCC4)nc(Cl)nc32)[C@H](O)[C@@H]1O [Compound 44b, 2-chloro-N^6-cyclopentyladenosine, reference compound]
MES model, number of animals protected from convulsions (mice [4]; 1 mg/kg i.p.): 1 out of 4 at (1 mg/kg)
scMET model, number of animals protected from convulsions (mice [7]; 1 mg/kg i.p.): 1 out of 4 (1 mg/kg)
TD50 at 1 h (in vivo): 0.84 mg/kg

CCNC(=O)[C@H]1O[C@@H](n2cnc3c(N)ncnc32)[C@H](O)[C@@H]1O [Compound 45, 5′-N-ethylcarboxamidoadenosine, reference compound]
% Inhibition, cyclic AMP, A1 (maximal efficacy) (hA1AR [3]; at 10 μM, relative to effect (100%) of full agonist 44a at 10 μM, CHO cells, n = 3–5): 100±15%
Agonist efficacy at A1AR (in words) (hA1AR [3]): full agonist
